Measurements taken from patent US10059717B2, “Urea compounds containing 3,4-dihydropyrimido[4,5-D]pyrimidin-2(1H)-one skeleton as protein kinase inhibitors” (KOREA INSTITUTE OF SCIENCE AND TECHNOLOGY, priority 2016, dated 2018).

Key:
GCK = target: T1, GCK (Homo sapiens, UniProt Q12851); assay: GCK kinase inhibitory activity; assay type: biochemical; settings: read-out: Kinase inhibitory efficacy, GI50 GCK
T1 sequence (Q12851 1-820): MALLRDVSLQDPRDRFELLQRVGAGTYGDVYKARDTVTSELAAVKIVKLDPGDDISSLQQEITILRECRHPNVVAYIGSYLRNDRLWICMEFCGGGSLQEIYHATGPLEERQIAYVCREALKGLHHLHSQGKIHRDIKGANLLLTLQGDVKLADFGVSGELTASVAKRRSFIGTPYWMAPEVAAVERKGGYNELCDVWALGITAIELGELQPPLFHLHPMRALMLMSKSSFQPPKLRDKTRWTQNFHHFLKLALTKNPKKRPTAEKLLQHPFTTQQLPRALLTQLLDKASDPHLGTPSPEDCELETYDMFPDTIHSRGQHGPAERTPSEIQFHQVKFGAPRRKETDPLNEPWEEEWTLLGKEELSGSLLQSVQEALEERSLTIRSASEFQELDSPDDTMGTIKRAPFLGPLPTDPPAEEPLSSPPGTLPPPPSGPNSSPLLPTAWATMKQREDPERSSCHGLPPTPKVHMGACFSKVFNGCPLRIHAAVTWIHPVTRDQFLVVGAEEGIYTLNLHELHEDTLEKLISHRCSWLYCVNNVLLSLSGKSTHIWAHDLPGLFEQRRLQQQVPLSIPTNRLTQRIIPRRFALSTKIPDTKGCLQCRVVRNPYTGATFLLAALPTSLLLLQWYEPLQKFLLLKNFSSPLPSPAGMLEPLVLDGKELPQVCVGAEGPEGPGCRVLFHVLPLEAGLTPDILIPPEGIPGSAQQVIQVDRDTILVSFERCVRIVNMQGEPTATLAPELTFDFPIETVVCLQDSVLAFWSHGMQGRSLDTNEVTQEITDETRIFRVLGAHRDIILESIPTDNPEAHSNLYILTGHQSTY
Protocol: (§1) GI50 values were calculated by measuring the inhibitory efficacy of the compounds of the present invention against both GCK and ACK1 kinases.

JAK1 = JAK1 (Homo sapiens, UniProt P23458); assay: Kinase panel biochemical assay; settings: 1 μM single concentration, read-out: % residual enzyme activity
Protocol: (§2) In order to measure the protein kinase inhibitory activity (% inhibition) of the compounds of the present invention, biochemical assays were performed on the full kinase panel listed in the following Table 1.
(§3) As an test compound, 1-(3-(7-((6-(4-ethylpiperazine-1-carbonyl)pyridin-3-yl)amino)-1-methyl-2-oxo-1,4-dihydropyrimido[4,5-d]pyrimidin-3(2H)-yl)-4-methylphenyl)-3-(2-methoxyphenyl)urea (Compound No. 14) was used. The kinase inhibitory efficacy was measured upon treatment with a 1 μM single concentration of the test compound to calculate % residual enzyme activity value.
(§4) ABL1, FGFR2, TAOK2/TAO1, EPHA5, EPHB2, EPHB3, RET, LYN B, EPHA2, FRK/PTK5, EPHA8, LCK, EPHB4, FYN, KHS/MAP4K5, DDR1, EPHA3, P38a/MAPK14, EPHA4, FMS, EPHB1, HCK, FGFR1, ABL2/ARG, EPHA6, c-Src, ACK1, FLT4NEGFR3, ERBB4/HER4, DDR2, KDRNEGFR2, LYN, ZAK/MLTK, YES/YES1, BLK, FGR, MLCK2/MYLK2, TAOK1, BMX/ETK, BTK, EPHA1, JAK1, P38b/MAPK11, TIE2/TEK, FLT1NEGFR1, TXK, SRMS, RAF1, SIK1, MLK3/MAP3K11, PEAK1, TRKA, EPHA7, GLK/MAP4K3, MLK2/MAP3K10, TEC, CSK, TRKC, FES/FPS, SIK2, FGFR3, BRK, YSK4/MAP3K19, ARAF, PDGFRb, TNK1, GCK/MAP4K2, PDGFRa, TNIK, TAK1, ERBB2/HER2, LIMK1, HIPK4, FER, EGFR, JAK2, HPK1/MAP4K1, TRKB, RIPK3, LOK/STK10, LIMK2, MLK1/MAP3K9, BRAF, MEKK3, MEK5, STK32B/YANK2, FGFR4, MEKK2, SLK/STK2, FLT3, PKAcg, TAOK3/JIK, TYRO3/SKY, SIK3, IR, LRRK2, PYK2, NEK11, p70S6K/RPS6KB1, LATS2.

PDGFRb = PDGFRb (Homo sapiens, UniProt P09619); assay: Kinase panel biochemical assay; settings: 1 μM single concentration, read-out: % residual enzyme activity
Chain of PDGFRb (P09619 33-1106): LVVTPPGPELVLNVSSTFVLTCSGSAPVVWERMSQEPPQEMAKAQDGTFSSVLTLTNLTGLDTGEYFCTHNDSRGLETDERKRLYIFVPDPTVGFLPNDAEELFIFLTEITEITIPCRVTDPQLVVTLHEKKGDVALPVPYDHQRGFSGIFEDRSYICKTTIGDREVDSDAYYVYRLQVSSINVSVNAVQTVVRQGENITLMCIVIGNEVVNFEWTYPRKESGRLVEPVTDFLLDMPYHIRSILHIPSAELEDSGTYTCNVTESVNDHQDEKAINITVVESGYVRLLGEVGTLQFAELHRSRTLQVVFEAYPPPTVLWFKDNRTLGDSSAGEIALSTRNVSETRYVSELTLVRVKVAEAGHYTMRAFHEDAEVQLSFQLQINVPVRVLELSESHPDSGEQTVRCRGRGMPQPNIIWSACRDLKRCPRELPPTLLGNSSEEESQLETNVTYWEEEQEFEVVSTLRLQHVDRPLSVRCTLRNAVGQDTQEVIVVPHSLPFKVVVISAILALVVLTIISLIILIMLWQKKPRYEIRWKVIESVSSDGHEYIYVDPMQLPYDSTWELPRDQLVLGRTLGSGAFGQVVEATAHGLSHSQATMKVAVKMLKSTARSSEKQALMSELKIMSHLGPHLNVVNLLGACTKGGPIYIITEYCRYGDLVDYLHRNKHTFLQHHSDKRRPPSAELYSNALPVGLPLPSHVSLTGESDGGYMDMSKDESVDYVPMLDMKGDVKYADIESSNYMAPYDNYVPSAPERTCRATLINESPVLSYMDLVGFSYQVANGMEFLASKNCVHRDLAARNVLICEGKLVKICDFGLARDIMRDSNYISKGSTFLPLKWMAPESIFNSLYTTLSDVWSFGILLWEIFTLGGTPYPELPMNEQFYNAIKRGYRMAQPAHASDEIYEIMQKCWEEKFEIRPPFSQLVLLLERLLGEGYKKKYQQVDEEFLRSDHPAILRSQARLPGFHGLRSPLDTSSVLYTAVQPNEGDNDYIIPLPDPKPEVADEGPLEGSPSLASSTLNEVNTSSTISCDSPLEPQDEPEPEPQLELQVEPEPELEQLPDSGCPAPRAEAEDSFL
Protocol: as §2, §3, §4

p70S6K/RPS6KB1 = p70S6K/RPS6KB1 (Homo sapiens, UniProt P23443); assay: Kinase panel biochemical assay; settings: 1 μM single concentration, read-out: % residual enzyme activity
Protocol: as §2, §3, §4

EPHA1 = EPHA1 (Homo sapiens, UniProt P21709); assay: Kinase panel biochemical assay; settings: 1 μM single concentration, read-out: % residual enzyme activity
Chain of EPHA1 (P21709 26-976): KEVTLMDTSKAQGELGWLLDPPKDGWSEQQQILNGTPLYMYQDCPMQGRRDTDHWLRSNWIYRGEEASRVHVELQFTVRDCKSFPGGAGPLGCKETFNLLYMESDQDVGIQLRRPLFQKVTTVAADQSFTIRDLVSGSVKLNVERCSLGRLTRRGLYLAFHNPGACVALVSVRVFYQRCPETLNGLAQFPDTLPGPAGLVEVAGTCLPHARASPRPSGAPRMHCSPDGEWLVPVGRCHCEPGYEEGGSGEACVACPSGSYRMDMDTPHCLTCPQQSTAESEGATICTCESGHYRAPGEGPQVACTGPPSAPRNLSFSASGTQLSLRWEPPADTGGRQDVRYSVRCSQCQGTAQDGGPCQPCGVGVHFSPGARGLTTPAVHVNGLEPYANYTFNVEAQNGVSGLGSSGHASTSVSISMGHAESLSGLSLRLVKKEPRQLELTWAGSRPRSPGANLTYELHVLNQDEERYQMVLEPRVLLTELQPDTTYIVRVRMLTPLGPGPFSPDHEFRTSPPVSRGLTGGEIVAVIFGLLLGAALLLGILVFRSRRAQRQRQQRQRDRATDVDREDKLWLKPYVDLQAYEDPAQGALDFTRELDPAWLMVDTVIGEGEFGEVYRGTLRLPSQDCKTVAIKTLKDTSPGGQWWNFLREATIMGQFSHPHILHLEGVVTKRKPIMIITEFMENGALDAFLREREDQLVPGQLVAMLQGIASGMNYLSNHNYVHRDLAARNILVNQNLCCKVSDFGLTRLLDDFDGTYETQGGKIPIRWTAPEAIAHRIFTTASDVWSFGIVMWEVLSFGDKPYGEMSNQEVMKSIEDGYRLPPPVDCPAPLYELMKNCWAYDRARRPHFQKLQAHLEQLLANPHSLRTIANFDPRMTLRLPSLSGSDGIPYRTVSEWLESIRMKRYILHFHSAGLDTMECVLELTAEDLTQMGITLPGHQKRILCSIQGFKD
Protocol: as §2, §3, §4

FGFR1 = FGFR1 (Homo sapiens, UniProt P11362); assay: Kinase panel biochemical assay; settings: 1 μM single concentration, read-out: % residual enzyme activity
Protocol: as §2, §3, §4

ZAK/MLTK = ZAK/MLTK (Homo sapiens, UniProt Q9NYL2); assay: Kinase panel biochemical assay; settings: 1 μM single concentration, read-out: % residual enzyme activity
Chain of ZAK/MLTK (Q9NYL2 whole entry): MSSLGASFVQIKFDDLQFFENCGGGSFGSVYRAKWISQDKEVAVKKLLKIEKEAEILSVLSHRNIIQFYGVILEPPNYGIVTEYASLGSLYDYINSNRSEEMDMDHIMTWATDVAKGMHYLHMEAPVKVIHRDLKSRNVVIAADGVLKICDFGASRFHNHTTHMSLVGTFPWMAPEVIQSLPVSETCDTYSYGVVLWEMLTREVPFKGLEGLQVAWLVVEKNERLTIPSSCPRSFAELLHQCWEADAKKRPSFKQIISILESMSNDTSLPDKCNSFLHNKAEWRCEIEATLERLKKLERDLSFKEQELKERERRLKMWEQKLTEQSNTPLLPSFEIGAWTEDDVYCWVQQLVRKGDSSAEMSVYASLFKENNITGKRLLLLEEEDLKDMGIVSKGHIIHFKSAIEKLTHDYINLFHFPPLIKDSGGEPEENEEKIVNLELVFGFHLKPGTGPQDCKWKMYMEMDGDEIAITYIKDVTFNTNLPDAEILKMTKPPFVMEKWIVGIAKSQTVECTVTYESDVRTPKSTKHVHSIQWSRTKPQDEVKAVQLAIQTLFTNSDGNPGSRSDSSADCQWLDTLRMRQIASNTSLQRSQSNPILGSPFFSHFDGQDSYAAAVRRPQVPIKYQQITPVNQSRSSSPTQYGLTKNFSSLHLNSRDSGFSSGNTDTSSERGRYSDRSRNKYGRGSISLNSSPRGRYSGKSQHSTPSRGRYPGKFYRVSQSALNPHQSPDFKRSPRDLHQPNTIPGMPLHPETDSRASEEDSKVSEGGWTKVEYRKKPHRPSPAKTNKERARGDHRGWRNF
Protocol: as §2, §3, §4

FRK/PTK5 = FRK/PTK5 (Homo sapiens, UniProt P42685); assay: Kinase panel biochemical assay; settings: 1 μM single concentration, read-out: % residual enzyme activity
Protocol: as §2, §3, §4

FES/FPS = FES/FPS (Homo sapiens, UniProt P07332); assay: Kinase panel biochemical assay; settings: 1 μM single concentration, read-out: % residual enzyme activity
Chain of FES/FPS (P07332 whole entry): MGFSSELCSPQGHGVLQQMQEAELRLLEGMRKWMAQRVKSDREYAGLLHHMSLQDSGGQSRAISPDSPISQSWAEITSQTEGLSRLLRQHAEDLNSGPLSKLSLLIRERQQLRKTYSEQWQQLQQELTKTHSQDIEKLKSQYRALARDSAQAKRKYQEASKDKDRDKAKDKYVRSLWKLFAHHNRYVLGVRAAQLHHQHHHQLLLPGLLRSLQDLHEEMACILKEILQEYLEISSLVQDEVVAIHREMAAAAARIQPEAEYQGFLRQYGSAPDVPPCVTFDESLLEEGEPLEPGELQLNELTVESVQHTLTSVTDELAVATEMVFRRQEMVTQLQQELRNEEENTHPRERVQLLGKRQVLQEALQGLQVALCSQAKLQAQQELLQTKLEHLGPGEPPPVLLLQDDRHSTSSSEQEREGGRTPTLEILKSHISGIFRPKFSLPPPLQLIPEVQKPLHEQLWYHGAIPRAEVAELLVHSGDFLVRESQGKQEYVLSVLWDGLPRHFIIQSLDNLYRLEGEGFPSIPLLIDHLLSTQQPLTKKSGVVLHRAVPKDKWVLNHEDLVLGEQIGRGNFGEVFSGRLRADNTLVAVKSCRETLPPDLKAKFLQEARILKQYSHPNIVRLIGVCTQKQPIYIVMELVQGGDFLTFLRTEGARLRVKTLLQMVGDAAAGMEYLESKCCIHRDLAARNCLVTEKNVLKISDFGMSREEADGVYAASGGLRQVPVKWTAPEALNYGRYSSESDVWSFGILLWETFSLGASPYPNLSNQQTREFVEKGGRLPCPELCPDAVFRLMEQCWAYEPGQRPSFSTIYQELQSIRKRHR
Protocol: as §2, §3, §4

Ba/F3 (N-Ras G12D) = assay: Proliferation inhibitory activity, Ba/F3; assay type: cell-based; settings: Mus musculus, BaF3; Ba/F3 (N-Ras G12D) cell line; read-out: Proliferation inhibitory efficacy (GI50, μM) Ba/F3 (N-Ras G12D)
Protocol: (§5) GI50 values were calculated by measuring the proliferation inhibitory efficacy of the compounds of the present invention on mt-NRAS (G12D) Ba/F3, U937 (wt-NRAS) and OCI-AML3 (mt-NRAS) cell lines.

U937 (N-Ras WT) = assay: Proliferation inhibitory activity, U937; assay type: cell-based; settings: Homo sapiens, U-937; U937 (N-Ras WT) cell line; read-out: Proliferation inhibitory efficacy (GI50, μM) U937 (N-Ras WT)
Protocol: as §5

ACK1 = ACK1 (Homo sapiens, UniProt Q07912); assay: ACK1 kinase inhibitory activity; assay type: biochemical; settings: read-out: Kinase inhibitory efficacy, GI50 ACK1
Chain of ACK1 (Q07912 whole entry): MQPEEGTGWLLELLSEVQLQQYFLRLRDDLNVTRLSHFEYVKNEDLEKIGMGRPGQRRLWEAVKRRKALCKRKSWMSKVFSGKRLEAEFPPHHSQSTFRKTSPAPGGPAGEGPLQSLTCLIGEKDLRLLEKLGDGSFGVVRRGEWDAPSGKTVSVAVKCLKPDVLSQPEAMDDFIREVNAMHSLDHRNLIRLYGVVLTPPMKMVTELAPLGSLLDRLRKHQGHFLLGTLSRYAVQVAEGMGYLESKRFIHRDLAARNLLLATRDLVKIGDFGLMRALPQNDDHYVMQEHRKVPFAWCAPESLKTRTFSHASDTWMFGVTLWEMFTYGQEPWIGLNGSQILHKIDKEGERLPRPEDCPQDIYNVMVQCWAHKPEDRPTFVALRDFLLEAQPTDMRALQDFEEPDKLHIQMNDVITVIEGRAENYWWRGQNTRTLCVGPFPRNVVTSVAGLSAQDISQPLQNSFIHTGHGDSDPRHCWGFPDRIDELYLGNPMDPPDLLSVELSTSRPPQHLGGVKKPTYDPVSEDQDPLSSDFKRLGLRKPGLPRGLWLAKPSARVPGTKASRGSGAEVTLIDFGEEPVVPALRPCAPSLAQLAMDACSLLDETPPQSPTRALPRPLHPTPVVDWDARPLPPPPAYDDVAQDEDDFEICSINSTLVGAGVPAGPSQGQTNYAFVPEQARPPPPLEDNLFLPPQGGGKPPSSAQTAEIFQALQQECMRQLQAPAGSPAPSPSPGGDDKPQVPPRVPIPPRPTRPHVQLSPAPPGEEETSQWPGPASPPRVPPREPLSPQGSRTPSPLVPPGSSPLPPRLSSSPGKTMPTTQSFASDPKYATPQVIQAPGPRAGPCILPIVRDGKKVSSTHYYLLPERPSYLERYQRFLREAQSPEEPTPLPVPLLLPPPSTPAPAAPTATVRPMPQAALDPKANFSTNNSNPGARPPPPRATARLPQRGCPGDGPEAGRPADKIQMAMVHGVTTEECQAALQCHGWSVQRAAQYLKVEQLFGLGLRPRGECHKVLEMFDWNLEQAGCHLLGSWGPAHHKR
Protocol: as §1

OCI-AML3 (N-Ras Q61L) = assay: Proliferation inhibitory activity, OCI-AML3; assay type: cell-based; settings: Homo sapiens, OCI-AML-3; OCI-AML3 (N-Ras Q61L) cell line; read-out: Proliferation inhibitory efficacy (GI50, μM) OCI-AML3 (N-Ras Q61L)
Protocol: as §5
Accordingly, the compounds of the present invention are particularly effective as a therapeutic agent for acute myelogenous leukemia (AML).

**Q.** For `CCN1CCN(C(=O)c2ccc(Nc3ncc4c(n3)N(C)C(=O)N(c3cc(NC(=O)Nc5ccccc5OC)ccc3C)C4)cn2)CC1` [Compound No. 14, 1-(3-(7-((6-(4-ethylpiperazin-1-carbonyl)pyridin-3-yl)amino)-1-methyl-2-oxo-1,4-dihydropyrimido[4,5-d]pyrimidin-3(2H)-yl)-4-methylphenyl)-3-(2-methoxyphenyl)urea], which GI50 (GCK) is on record?
**A.** < 30 nM

**Q.** What about the remaining activity at 1 µM (JAK1) of the same compound?
**A.** ≤ 30%

**Q.** And the remaining activity at 1 µM (PDGFRb)?
**A.** ≤ 30%

**Q.** And the remaining activity at 1 µM (p70S6K/RPS6KB1)?
**A.** ≤ 30%

**Q.** What about the remaining activity at 1 µM (EPHA1) of the same compound?
**A.** ≤ 30%

**Q.** What about the remaining activity at 1 µM (FGFR1) of the same compound?
**A.** ≤ 30%

**Q.** And the remaining activity at 1 µM (ZAK/MLTK)?
**A.** ≤ 30%

**Q.** And the remaining activity at 1 µM (FRK/PTK5)?
**A.** ≤ 30%

**Q.** And the remaining activity at 1 µM (FES/FPS)?
**A.** ≤ 30%

**Q.** And the GI50 (Ba/F3 (N-Ras G12D))?
**A.** 0.5 to 3 µM

**Q.** And the GI50 (U937 (N-Ras WT))?
**A.** ≥ 5 µM

**Q.** And the GI50 (ACK1)?
**A.** < 30 nM

**Q.** And the GI50 (OCI-AML3 (N-Ras Q61L))?
**A.** < 0.5 µM
